Experimental data reported in publication PMC5980303 (CPT: Pharmacometrics & Systems Pharmacology, 2018).
Values joined by “and” are separate entries in the source; they are usually repeats but may differ in a detail not shown here. Identical values can stand only once. Marks after values point to notes of the source that are not given here.

What was measured:
[1] = cited from earlier work
[2] = cited from earlier work; remark: listed apart in the source
[3] = doses of 15 mg or 20 mg in the absence of food; cited from earlier work
[4] = Integrated population pharmacokinetic model
[5] = final population PK model, comedication factor on CL/F

In the case of `O=C(NC[C@H]1CN(c2ccc(N3CCOCC3=O)cc2)C(=O)O1)c1ccc(Cl)s1` [rivaroxaban], the “Biopharmaceutics Classification System class” value [1] is given as “class 2”, the “permeability (BCS classification)” value [1] is given as “high permeability” and the “solubility (BCS classification)” value [1] is given as “low solubility”. The “fraction of the dose eliminated renally as unchanged drug” value [2] was “Approximately one‐third”, the “bioavailability and absorption rate vs dose” value [3] was “less than dose proportional” and the “θCL/F, VTE >72 h (study-specific factor on CL/F)” value ([4]; VTE prevention, >72 hours, relative to VTE treatment (factor = 1)) was 1.29 Proportion. For the same compound, the “θCL/F, VTE ≤72 h (study-specific factor on CL/F)” value ([4]; VTE prevention, ≤72 hours, relative to VTE treatment (factor = 1)) was 1.04 Proportion, the “θCL/F, ACS (study-specific factor on CL/F)” value ([4]; acute coronary syndrome population, relative to VTE treatment (factor = 1)) was 1.14 Proportion and the “θCL/F, AF (study-specific factor on CL/F)” value ([4]; atrial fibrillation population, relative to VTE treatment (factor = 1)) was 0.85 Proportion and 0.849 Proportion. The “D50 (dose parameter of relative bioavailability function)” value ([4]; final population PK model) was 14.4 mg, the “ω2 CL/F (interindividual variability)” value ([4]; final population PK model) was 0.167 (10.3) ^d Variance and the “ω2 CL/F, V/F” value ([4]; final population PK model) was 0.0674 Covariance. For the same compound, the “ω2 ka (interindividual variability)” value ([4]; final population PK model) was 0.628 (32.8) ^d Variance, the “ω^2 V/F (interindividual variability)” value ([4]; final population PK model) was 0.0391 (25.7) ^d Variance and the “ka (first-order absorption rate constant)” value ([4]; final population PK model (run 12), 4,918 patients, oral rivaroxaban) was 0.821 h⁻¹. For the same compound, the “θCL/F, CYP3A4 inducer” value [4, 5] was 1.30 Proportion, the “θCL/F, Medium CYP3A4 inhibitor” value [4, 5] was 0.863 Proportion and the “θCL/F, Strong CYP3A4 inhibitor” value [4, 5] was 0.978 Proportion. The “θCL/F, Weak CYP3A4 inhibitor” value [4, 5] was 0.939 Proportion, the “θCL/F, PGP” value ([4]; final population PK model, comedication with P-gp inhibitor, factor on CL/F) was 0.966 Proportion and the “θCL/F, CrCL” value ([4]; final population PK model, effect of Tietz-truncated CrCL on CL/F) was 0.406 Power. For the same compound, the “θV/F, Age” value ([4]; final population PK model, effect of age on V/F) was −0.189 Power, the “θV/F, Sex” value ([4]; final population PK model, effect of gender (female) on V/F) was 0.889 Proportion and the “θCL/F, weight” value ([4]; final population PK model, effect of weight on CL/F) was −0.278 Power. The “θV/F, weight” value ([4]; final population PK model, effect of weight on V/F) was 0.216 Power, the “Fmax (relative bioavailability as a function of dose)” value ([4]; final population PK model, fixed, relative bioavailability fixed at 1.0 for a 10 mg dose) was 1.25 Proportion and the “σ2 prop (residual variability)” value ([4]; final population PK model, proportional residual error) was 0.203 (10.3) ^d Variance. For the same compound, the “Fmin (relative bioavailability as a function of dose)” value ([4]; final population PK model, relative to 10 mg dose (F = 1)) was 0.590 Proportion and the “AUC increase in the presence of strong CYP3A4 inhibitors” value ([4]; integrated population PK model) was 1.02 fold.
